Experimental data from the NIST ThermoML archive (doi:10.1021/je101361u).

Test: xn = mol fraction of the nth substance listed
Details: 101.3 kPa, Liquid, Vibrating tube method

CCOCCOCCOCC [diethylene glycol diethyl ether] + ClCCCl
mass density [kg/m3]
Details | 323.15 K | 328.15 K | 333.15 K
x2 = 0.0234 | – | 876.73 | 871.83
x2 = 0.0504 | – | 881.07 | 876.13
x2 = 0.0751 | – | 885.15 | 880.18
x2 = 0.1009 | – | 889.59 | 884.59
x2 = 0.1504 | – | 898.31 | 893.23
x2 = 0.2 | 912.84 | 907.7 | 902.54
x2 = 0.2546 | 923.83 | 918.61 | 913.36
x2 = 0.2999 | 933.46 | 928.16 | 922.86
x2 = 0.35 | 944.83 | 939.44 | 934.03
x2 = 0.4006 | 957.11 | 951.61 | 946.09
x2 = 0.4502 | 969.94 | 964.34 | 958.72
x2 = 0.5002 | 983.83 | 978.12 | 972.39
x2 = 0.5499 | 998.59 | 992.77 | 986.94
x2 = 0.6 | 1014.67 | 1008.71 | 1002.74
x2 = 0.65 | 1031.92 | 1025.84 | 1019.73
x2 = 0.6999 | 1050.67 | 1044.44 | 1038.18
x2 = 0.7492 | 1070.63 | 1064.24 | 1057.81
x2 = 0.8 | 1093.36 | 1086.78 | 1080.17
x2 = 0.85 | 1117.84 | 1111.08 | 1104.27
x2 = 0.9 | 1144.87 | 1137.9 | 1130.88
x2 = 0.95 | 1174.86 | 1167.69 | 1160.44
x2 = 0.975 | 1191.23 | 1183.9 | 1176.53
